Assay results: patent US6346261B1, “Pesticidal composition” (priority 1997, dated 2002)

System: eggs of cat flea
Assay: Hatching inhibition of cat flea eggs on treated filter paper (Test Example 1)
Type: in vivo, cat flea (Ctenocephalides felis)
Settings: 26° C., 95% humidity, 5 days, corrected against non-treated hatching ratio 92.4%
Procedure: Each of pyriproxyfen, 1S,3S,4S,6R-carane-3,4-diol and a mixture thereof was diluted with acetone, added dropwise to a filter paper (3.8 cm in diameter) and dried. About 20 eggs (within 24 hours after laid) of cat flea were set on the filter paper prepared above. The filter paper was held in a plastic plate, kept 26° C. of temperature and 95% of humidity for 5 days and hatching was observed.
Hatching inhibition ratio (%) in Table represents a corrected inhibition ratio (%) which is calculated by the following:
Hatching inhibition ratio (%)={(C−T)/C}×100
wherein C is a hatching ratio (92.4%) of flea at non-treated area and T is a hatching ratio of flea at treated area.
In the table, PY means pyriproxyfen and CA means 1S,3S,4S,6R-carane-3,4-diol. The treated dosage unit is mg/m^2.

| Structure (SMILES) | Hatching inhibition ratio (%) (treated dosage 10 mg/m^2 on filter paper) | Hatching inhibition ratio (%) (treated dosage 100 mg/m^2 on filter paper) | Hatching inhibition ratio (%) (treated dosage 0.1 mg/m^2 on filter paper) |
| --- | --- | --- | --- |
| CC1(C)[C@@H]2C[C@H](O)[C@@](C)(O)C[C@@H]21 [CA, 1S,3S,4S,6R-carane-3,4-diol] | 3.1 | 12.1 | – |
| CC(COc1ccc(Oc2ccccc2)cc1)Oc1ccccn1 (stereo not drawn) [PY, pyriproxyfen] | – | – | 58.1 |
